Test results: patent US11136329B2, “JAK inhibitors” (Vimalan Biosciences, Inc., priority 2019, dated 2021)

Experiments:
Type in all cases: biochemical
JAK1 = JAK1 (Homo sapiens (Human), UniProt P23458); assay: JAK/TYK2 assay (Kinase Glo luminescence), JAK1; conditions: 7.5 nM enzyme, 2 uM ATP, 30 uM IRS-1, 1 hr
In short: (§1)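 Kinase activity read as Kinase Glo luminescence (inversely related to activity) after enzyme and substrate reacted with compound at 25° C. for 1-2 hours in 20 mM HEPES, 10 mM MgCl2, 0.01% Tween, 1 mM DTT, pH 7.5. Test compound final concentrations spanned 10000 to 0.51 nM in 3-fold steps.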

TYK2 = TYK2 (Homo sapiens (Human), UniProt P29597); assay: JAK/TYK2 assay (Kinase Glo luminescence), TYK2; conditions: 9 nM enzyme, 2 uM ATP, 30 uM IRS-1, 1 hr
In short: as §1

JAK3 = JAK3 (Homo sapiens (Human), UniProt P52333); assay: JAK/TYK2 assay (Kinase Glo luminescence), JAK3; conditions: 1.5 nM enzyme, 2 uM ATP, 4 uM pEY, 1 hr
In short: as §1

JAK2 = JAK2 (Homo sapiens (Human), UniProt O60674); assay: JAK/TYK2 assay (Kinase Glo luminescence), JAK2; conditions: 0.8 nM enzyme, 2 uM ATP, 4 uM pEY, 1 hr
In short: as §1

Measured: IC50

Chain of TYK2 (P29597 whole entry, species assumed): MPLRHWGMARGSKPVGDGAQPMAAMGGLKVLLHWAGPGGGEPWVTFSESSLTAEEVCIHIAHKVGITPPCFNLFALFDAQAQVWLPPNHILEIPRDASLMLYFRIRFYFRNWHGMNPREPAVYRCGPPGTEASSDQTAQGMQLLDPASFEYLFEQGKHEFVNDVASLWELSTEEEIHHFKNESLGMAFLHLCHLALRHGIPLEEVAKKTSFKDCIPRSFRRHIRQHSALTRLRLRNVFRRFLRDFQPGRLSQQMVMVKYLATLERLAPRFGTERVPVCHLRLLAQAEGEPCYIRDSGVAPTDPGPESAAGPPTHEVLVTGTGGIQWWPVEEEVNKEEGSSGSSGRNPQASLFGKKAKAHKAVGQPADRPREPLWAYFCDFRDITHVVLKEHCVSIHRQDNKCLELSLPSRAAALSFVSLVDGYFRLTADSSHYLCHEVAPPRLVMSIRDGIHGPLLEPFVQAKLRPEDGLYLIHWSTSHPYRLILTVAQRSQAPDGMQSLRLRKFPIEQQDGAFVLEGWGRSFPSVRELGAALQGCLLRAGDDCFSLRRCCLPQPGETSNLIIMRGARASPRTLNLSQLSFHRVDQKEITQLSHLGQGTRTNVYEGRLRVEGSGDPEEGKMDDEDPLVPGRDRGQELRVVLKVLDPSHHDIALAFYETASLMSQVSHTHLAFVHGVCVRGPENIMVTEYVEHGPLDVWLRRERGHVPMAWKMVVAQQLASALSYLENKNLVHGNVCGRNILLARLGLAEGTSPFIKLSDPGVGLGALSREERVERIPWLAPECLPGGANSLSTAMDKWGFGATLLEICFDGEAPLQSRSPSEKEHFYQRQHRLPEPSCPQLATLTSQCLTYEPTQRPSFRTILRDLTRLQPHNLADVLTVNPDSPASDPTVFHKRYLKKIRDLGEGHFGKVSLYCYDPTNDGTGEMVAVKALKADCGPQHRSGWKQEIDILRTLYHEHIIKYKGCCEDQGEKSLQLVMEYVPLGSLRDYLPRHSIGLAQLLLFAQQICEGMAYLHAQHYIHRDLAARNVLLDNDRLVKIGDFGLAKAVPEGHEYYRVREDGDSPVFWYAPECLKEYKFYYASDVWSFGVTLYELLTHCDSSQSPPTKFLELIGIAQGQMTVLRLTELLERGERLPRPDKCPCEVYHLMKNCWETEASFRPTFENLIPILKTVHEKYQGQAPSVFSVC
Chain of JAK2 (O60674 whole entry, species assumed): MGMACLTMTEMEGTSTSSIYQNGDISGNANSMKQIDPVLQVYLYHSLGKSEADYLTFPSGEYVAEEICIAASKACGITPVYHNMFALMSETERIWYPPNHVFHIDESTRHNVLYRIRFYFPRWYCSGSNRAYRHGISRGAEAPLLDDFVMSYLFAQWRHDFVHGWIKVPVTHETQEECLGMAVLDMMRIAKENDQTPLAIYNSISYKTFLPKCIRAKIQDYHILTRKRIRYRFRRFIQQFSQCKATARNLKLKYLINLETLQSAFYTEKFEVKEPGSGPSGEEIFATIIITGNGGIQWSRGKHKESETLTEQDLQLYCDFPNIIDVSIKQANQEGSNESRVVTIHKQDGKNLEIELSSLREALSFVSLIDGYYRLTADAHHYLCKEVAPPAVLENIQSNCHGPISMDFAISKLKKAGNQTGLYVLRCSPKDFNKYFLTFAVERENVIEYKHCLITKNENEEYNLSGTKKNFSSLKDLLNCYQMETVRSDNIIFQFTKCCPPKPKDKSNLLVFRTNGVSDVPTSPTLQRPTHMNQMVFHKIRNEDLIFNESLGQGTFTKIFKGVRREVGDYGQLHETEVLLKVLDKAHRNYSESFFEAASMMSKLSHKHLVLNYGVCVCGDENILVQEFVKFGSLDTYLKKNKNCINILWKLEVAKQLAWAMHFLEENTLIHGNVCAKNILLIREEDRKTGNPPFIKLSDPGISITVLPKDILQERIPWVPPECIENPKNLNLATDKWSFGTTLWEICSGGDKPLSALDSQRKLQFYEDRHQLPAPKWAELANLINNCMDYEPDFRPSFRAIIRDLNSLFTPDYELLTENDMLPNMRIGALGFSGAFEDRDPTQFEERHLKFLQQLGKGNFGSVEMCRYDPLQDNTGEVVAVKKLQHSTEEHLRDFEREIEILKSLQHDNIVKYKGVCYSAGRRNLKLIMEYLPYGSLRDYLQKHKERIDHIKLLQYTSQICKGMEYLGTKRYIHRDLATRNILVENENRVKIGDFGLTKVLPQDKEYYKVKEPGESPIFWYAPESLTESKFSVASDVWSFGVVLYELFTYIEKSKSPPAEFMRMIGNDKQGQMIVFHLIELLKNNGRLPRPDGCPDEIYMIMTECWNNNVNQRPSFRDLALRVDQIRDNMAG
Chain of JAK1 (P23458 whole entry, species assumed): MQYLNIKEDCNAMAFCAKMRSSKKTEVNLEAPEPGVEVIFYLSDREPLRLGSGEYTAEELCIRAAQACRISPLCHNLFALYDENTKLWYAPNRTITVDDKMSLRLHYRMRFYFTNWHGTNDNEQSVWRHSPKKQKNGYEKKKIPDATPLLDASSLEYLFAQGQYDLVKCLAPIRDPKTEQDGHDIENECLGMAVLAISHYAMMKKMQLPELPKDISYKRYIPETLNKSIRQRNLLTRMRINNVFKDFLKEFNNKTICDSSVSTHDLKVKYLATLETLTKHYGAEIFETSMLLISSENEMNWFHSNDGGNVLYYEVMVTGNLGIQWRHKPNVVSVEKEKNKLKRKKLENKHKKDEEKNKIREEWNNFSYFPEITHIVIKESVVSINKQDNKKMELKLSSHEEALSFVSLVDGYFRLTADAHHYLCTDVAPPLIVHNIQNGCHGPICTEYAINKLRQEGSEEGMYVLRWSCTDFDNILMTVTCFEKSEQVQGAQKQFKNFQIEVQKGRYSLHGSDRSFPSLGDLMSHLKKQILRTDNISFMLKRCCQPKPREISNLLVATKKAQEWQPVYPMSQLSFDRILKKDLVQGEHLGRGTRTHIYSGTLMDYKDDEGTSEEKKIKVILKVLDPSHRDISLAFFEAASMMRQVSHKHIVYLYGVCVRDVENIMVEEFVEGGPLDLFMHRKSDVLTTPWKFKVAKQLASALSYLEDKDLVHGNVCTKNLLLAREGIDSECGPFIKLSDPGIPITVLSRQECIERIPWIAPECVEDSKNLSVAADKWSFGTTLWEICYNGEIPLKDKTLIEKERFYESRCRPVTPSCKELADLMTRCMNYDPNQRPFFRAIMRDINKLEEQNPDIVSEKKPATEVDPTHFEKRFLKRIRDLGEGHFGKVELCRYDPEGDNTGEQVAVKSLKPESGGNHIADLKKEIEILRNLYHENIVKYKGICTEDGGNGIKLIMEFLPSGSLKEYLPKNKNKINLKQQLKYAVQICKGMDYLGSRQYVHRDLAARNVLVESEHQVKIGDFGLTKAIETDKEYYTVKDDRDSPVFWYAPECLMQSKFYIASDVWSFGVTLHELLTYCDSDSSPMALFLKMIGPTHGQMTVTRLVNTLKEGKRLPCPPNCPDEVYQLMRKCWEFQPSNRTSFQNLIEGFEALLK
Chain of JAK3 (P52333 whole entry, species assumed): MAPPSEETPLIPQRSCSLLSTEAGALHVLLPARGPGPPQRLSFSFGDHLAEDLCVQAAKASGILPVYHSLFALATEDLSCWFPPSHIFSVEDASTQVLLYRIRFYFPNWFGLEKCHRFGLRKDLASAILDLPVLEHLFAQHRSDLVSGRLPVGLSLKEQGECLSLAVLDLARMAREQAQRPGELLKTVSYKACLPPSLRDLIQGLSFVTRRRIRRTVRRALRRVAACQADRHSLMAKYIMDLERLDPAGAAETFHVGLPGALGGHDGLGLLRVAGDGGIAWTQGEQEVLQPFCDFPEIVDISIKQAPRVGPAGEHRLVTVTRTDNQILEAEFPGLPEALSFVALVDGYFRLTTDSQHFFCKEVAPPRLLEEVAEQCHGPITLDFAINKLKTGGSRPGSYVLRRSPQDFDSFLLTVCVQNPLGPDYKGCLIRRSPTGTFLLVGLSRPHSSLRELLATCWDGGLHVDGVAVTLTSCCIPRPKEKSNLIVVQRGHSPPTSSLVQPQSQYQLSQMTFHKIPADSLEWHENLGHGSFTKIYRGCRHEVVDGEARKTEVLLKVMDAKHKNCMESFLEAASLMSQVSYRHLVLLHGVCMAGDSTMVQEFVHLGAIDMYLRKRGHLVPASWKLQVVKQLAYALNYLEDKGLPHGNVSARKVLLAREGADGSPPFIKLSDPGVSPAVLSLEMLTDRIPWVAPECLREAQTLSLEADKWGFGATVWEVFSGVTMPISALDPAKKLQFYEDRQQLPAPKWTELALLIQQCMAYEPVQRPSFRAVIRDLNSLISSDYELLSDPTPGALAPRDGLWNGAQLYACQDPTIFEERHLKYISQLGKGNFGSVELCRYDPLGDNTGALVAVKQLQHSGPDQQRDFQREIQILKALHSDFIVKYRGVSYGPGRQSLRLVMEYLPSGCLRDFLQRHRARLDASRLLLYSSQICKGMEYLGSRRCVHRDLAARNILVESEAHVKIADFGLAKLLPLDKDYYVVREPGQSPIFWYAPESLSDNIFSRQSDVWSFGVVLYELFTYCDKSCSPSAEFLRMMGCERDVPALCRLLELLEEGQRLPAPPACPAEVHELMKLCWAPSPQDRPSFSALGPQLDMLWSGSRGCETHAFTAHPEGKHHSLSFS

C=CC[C@H](Cn1ccc2cnc(Nc3cnn(CC(=O)OC(C)C)c3)nc21)C(C)C [Compound 102, isopropyl (S)-2-(4-((7-(2-isopropylpent-4-en-1-yl)-7H-pyrrolo[2,3-d]pyrimidin-2-yl)amino)-1H-pyrazol-1-yl)acetate]
< 100 nM: all assays above

CCC(CC)Cn1ccc2cnc(Nc3cnn(CC(=O)OCCN(C)C)c3)nc21 [Compound 103, 2-(dimethylamino)ethyl 2-(4-((7-(2-ethylbutyl)-7H-pyrrolo[2,3-d]pyrimidin-2-yl)amino)-1H-pyrazol-1-yl)acetate]
< 100 nM: all assays above

CC[C@H](Cn1ccc2cnc(Nc3cnn(CC(=O)O)c3)nc21)C(C)C [Compound 104, (S)-2-(4-((7-(2-ethyl-3-methylbutyl)-7H-pyrroIo[2,3-d]pyrimidin-2-yl)amino)-1H-pyrazol-1-yl)acetic acid]
< 100 nM: all assays above

CCC(Cn1ccc2cnc(Nc3cnn(CC(=O)O[C@@H](C)CO)c3)nc21)C(C)C (stereo partly drawn) [Compound 105, (S)-1-hydroxypropan-2-yl 2-(4-((7-(2-ethyl-3-methylbutyl)-7H-pyrrolo[2,3-d]pyrimidin-2-yl)amino)-1H-pyrazol-1-yl)acetate]
< 100 nM: all assays above

CCC(Cn1ccc2cnc(Nc3cnn(CC(=O)O[C@H](C)CO)c3)nc21)C(C)C (stereo partly drawn) [Compound 106, (R)-1-hydroxypropan-2-yl 2-(4-((7-(2-ethyl-3-methylbutyl)-7H-pyrrolo[2,3-d]pyrimidin-2-yl)amino)-1H-pyrazol-1-yl)acetate]
< 100 nM: all assays above

CCC(C)OC(=O)Cn1cc(Nc2ncc3ccn(CC(CC)C(C)C)c3n2)cn1 (centres unmarked) [Compound 107, sec-butyl 2-(4-((7-(2-ethyl-3-methylbutyl)-7H-pyrrolo[2,3-d]pyrimidin-2-yl)amino)-1H-pyrazol-1-yl)acetate]
< 100 nM: all assays above

CCC(Cn1ccc2cnc(Nc3cnn(CC(=O)OCC(C)C)c3)nc21)C(C)C (centres unmarked) [Compound 108, isobutyl 2-(4-((7-(2-ethyl-3-methylbutyl)-7H-pyrrolo[2,3-d]pyrimidin-2-yl)amino)-1H-pyrazol-1-yl)acetate]
< 100 nM: all assays above

CCC(Cn1ccc2cnc(Nc3cnn(CC(=O)OC(C)C(C)O)c3)nc21)C(C)C (centres unmarked) [Compound 109, 3-hydroxybutan-2-yl 2-(4-((7-(2-ethyl-3-methylbutyl)-7H-pyrrolo[2,3-d]pyrimidin-2-yl)amino)-1H-pyrazol-1-yl)acetate]
< 100 nM: all assays above

CCC(Cn1ccc2cnc(Nc3cnn(CC(=O)OC[C@@H](C)O)c3)nc21)C(C)C (stereo partly drawn) [Compound 110, (R)-2-hydroxypropyl 2-(4-((7-(2-ethyl-3-methylbutyl)-7H-pyrrolo[2,3-d]pyrimidin-2-yl)amino)-1H-pyrazol-1-yl)acetate]
< 100 nM: all assays above

CCC(Cn1ccc2cnc(Nc3cnn(CC(=O)OCC(O)CO)c3)nc21)C(C)C (centres unmarked) [Compound 111, 2,3-dihydroxypropyl 2-(4-((7-(2-ethyl-3-methylbutyl)-7H-pyrrolo[2,3-d]pyrimidin-2-yl)amino)-1H-pyrazol-1-yl)acetate]
< 100 nM: all assays above

CCC(Cn1ccc2cnc(Nc3cnn(CC(=O)OC[C@H](C)O)c3)nc21)C(C)C (stereo partly drawn) [Compound 112, (S)-2-hydroxypropyl 2-(4-((7-(2-ethyl-3-methylbutyl)-7H-pyrrolo[2,3-d]pyrimidin-2-yl)amino)-1H-pyrazol-1-yl)acetate]
< 100 nM: all assays above

CCC(CC)Cn1ccc2cnc(Nc3cnn(CC(=O)OC(C)C(C)O)c3)nc21 (centres unmarked) [Compound 113, 3-hydroxybutan-2-yl 2-(4-((7-(2-ethylbutyl)-7H-pyrrolo[2,3-d]pyrimidin-2-yl)amino)-1H-pyrazol-1-yl)acetate]
< 100 nM: all assays above

CC[C@@H](Cn1ccc2cnc(Nc3cnn(C(C)C(=O)O)c3)nc21)C(C)C (stereo partly drawn) [Compound 114, 2-(4-((7-((R)-2-ethyl-3-methylbutyl)-7H-pyrrolo[2,3-d]pyrimidin-2-yl)amino)-1H-pyrazol-1-yl)propanoic acid]
< 100 nM: all assays above

CC[C@H](Cn1ccc2cnc(Nc3cnn(CCC(=O)O)c3)nc21)C(C)C [Compound 115, (S)-3-(4-((7-(2-ethyl-3-methylbutyl)-7H-pyrrolo[2,3-d]pyrimidin-2-yl)amino)-1H-pyrazol-1-yl)propanoic acid]
< 100 nM: all assays above

CC(C(=O)O)n1cc(Nc2ncc3ccn(C[C@H]4CC[C@H](O)CC4)c3n2)cn1 (some centres unmarked) [Compound 116, 2-(4-((7-(((1r,4r)-4-hydroxycyclohexyl)methyl)-7H-pyrrolo[2,3-d]pyrimidin-2-yl)amino)-1H-pyrazol-1-yl)propanoic acid]
< 100 nM: all assays above

O=C(O)CCn1cc(Nc2ncc3ccn(C[C@H]4CC[C@H](O)CC4)c3n2)cn1 [Compound 117, 3-(4-((7-(((1r,4r)-4-hydroxycyclohexyl)methyl)-7H-pyrrolo[2,3-d]pyrimidin-2-yl)amino)-1H-pyrazol-1-yl)propanoic acid]
< 100 nM: all assays above

CCOC(=O)C(C)n1cc(Nc2ncc3ccn(C[C@@H](CC)C(C)C)c3n2)cn1 (stereo partly drawn) [Compound 118, ethyl 2-(4-((7-((S)-2-ethyl-3-methylbutyl)-7H-pyrrolo[2,3-d]pyrimidin-2-yl)amino)-1H-pyrazol-1-yl)propanoate]
< 100 nM: all assays above

CCOC(=O)CCn1cc(Nc2ncc3ccn(C[C@@H](CC)C(C)C)c3n2)cn1 [Compound 119, ethyl (S)-3-(4-((7-(2-ethyl-3-methylbutyl)-7H-pyrrolo[2,3-d]pyrimidin-2-yl)amino)-1H-pyrazol-1-yl)propanoate]
< 100 nM: all assays above

CCOC(=O)C(C)n1cc(Nc2ncc3ccn(C[C@H]4CC[C@H](O)CC4)c3n2)cn1 (some centres unmarked) [Compound 120, ethyl 2-(4-((7-(((1r,4r)-4-hydroxycyclohexyl)methyl)-7H-pyrrolo[2,3-d]pyrimidin-2-yl)amino)-1H-pyrazol-1-yl)propanoate]
< 100 nM: all assays above

CCOC(=O)CCn1cc(Nc2ncc3ccn(C[C@H]4CC[C@H](O)CC4)c3n2)cn1 [Compound 121, ethyl 3-(4-((7-(((1r,4r)-4-hydroxycyclohexyl)methyl)-7H-pyrrolo[2,3-d]pyrimidin-2-yl)amino)-1H-pyrazol-1-yl)propanoate]
< 100 nM: all assays above
